# Experimental data published in US9145415B2, “Nitrogen-containing heterocyclic compound or salt thereof” (FUJIFILM Corporation, priority 2012, dated 2015).
# Like-named read-outs stand apart in the source and are kept apart here.
# What was measured:
# [1] = molecular target: T1, human FLT3 protein (FLT3 (WT)) (Homo sapiens, UniProt P36888); assay: FLT3 inhibition test (FLT3 enzyme inhibition, time-resolved fluorescence of substrate peptide phosphorylation); format: biochemical; details: read-out: FLT3 (WT) enzyme inhibition activity
# T1 construct: human FLT3 protein (intracellular region, 564 to 993 aa); GST; purchased Carna Biosciences; host or cells: baculovirus expression system
# T1 sequence (P36888 564-993): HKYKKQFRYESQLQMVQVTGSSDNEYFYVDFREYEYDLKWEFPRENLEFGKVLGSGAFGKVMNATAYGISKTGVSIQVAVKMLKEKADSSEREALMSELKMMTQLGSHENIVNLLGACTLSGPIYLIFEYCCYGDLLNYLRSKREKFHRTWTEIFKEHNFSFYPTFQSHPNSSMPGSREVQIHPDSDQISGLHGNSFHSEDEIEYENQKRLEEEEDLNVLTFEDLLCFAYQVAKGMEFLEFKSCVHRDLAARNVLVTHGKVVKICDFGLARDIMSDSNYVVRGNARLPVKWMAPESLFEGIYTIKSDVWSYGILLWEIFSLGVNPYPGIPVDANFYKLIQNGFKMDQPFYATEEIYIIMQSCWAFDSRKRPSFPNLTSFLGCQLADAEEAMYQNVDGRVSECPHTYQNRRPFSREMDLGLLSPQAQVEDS
# In short: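 Wild-type human FLT3 (1.2 μg) pre-incubated with compound 15 min at 25° C in 100 mM HEPES pH 7.5, 10 mM MgCl2, 25 mM NaCl, 1 mM DTT. Reaction started with substrate peptide and ATP (final 50 μM), run 30 min at 25° C; phosphorylation read by time-resolved fluorescence.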
# MV4-11 cells = assay: Leukemia cell proliferation inhibition test (ATPlite), MV4-11; format: cell-based; details: Homo sapiens, read-out: MV4-11 cell proliferation inhibition effect
# In short: (§1)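 72 h proliferation, 37° C/5% CO2; 10,000 cells/well, RPMI/10% FBS; ATPlite luminescence (RLU); 0.1% DMSO taken as 0% inhibition; GI50 via sigmoid fit, n=2.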
# Molm-13 cells = assay: Leukemia cell proliferation inhibition test (ATPlite), Molm-13; format: cell-based; details: Homo sapiens, read-out: MOLM13 cell proliferation inhibition effect
# In short: as §1
# [2] = GST-fused human FLT3 (564 to 993 aa), ATP 50 μM
# [3] = MV4-11, 72 h, MV4-11, 72 hours culture, ATPlite, GI50 per method
# [4] = MOLM-13, 72 h, Molm-13, 72 hours culture, ATPlite, GI50 per method
Structure (SMILES),"IC50 [1, 2] [nM]",IC50 (MV4-11 cells; [3]) [nM],IC50 (Molm-13 cells; [4]) [nM],IC50 ([1]; FLT3 (WT)) [nM],"IC50 (MV4-11 cells; MV4-11, MV4-11 cell) [nM]","IC50 (Molm-13 cells; MOLM-13, MOLM13 cell) [nM]"
CCCNc1nc(Nc2ccc(C#N)cc2)ncc1C#Cc1cccc(NC(=O)[C@H](C)N(C)C(=O)/C=C/CN(C)C)n1 [Compound 8-19],< 10,10 to 100,10 to 100,–,–,–
"COc1nc(Nc2ccc(C#N)cc2)ncc1C#C[C@@H]1CCC[C@H](NC(=O)[C@H](C)N(C)C(=O)/C=C/CN(C)C)C1 [Compound 15-1, (E)-N—((S)-1-(((1S,3R)-3-((2-((4-cyanophenyl)amino)-4-methoxypyrimidin-5-yl)ethynyl)cyclohexyl)amino)-1-oxopropan-2-yl)-4-(dimethylamino)-N-methyl-2-butenamide]",< 10,< 10,< 10,–,–,–
CCCNc1nc(Nc2ccc3c(OC)nn(COCC)c3c2)ncc1C#CCCCNC(=O)[C@H](C)N(C)C(=O)/C=C/CN(C)C [Compound 22-50],–,–,–,< 10,10 to 100,< 10
CNc1ncc(C#C[C@@H]2CCC[C@H](NC(=O)[C@H](C)N(C)C(=O)/C=C/CN(C)C)C2)c(NCc2cccc(F)c2)n1 [Compound 21-44],–,–,–,< 10,10 to 100,10 to 100
C[C@@H](C(=O)NCCCC#Cc1cnc(Nc2ccc(C#N)cc2)nc1-n1cncn1)N(C)C(=O)/C=C/CN(C)C [Compound 20-4],< 10,10 to 100,10 to 100,–,–,–
COCCCNc1nc(Nc2ccc3cn[nH]c3c2)ncc1C#CCCCNC(=O)[C@H](C)N(C)C(=O)/C=C/CN(C)C [Compound 10-65],< 10,< 10,< 10,–,–,–
C[C@@H](C(=O)N[C@H]1CCC[C@@H](C#Cc2cnc(Nc3ccc(C#N)cc3)nc2N2CCOCC2)C1)N(C)C(=O)/C=C/CN(C)C [Compound 14-5],< 10,< 10,< 10,–,–,–
C=CC(=O)NC(C)(C)C(=O)NCCCNC(=O)c1cnc(Nc2ccc3cnccc3c2)nc1NCCC [Compound 6-7],< 10,10 to 100,10 to 100,–,–,–
COc1ccc(Nc2nc(Nc3ccc(F)cc3)ncc2C#CCCCNC(=O)[C@H](C)N(C)C(=O)/C=C/CN(C)C)cn1 [Compound 10-40],< 10,< 10,< 10,–,–,–
CCCNc1nc(NCCc2ccncc2)ncc1C#Cc1cccc(NC(=O)[C@H](C)N(C)C(=O)/C=C/CN(C)C)c1 [Compound 8-6],< 10,< 10,< 10,–,–,–
CCCNc1nc(Nc2cccc(-n3nccn3)c2)ncc1C#CCCCNC(=O)[C@H](C)N(C)C(=O)/C=C/CN(C)C [Compound 22-19],–,–,–,< 10,< 10,< 10
C[C@@H](C(=O)NCCCC#Cc1cnc(Nc2ccc(C#N)cc2)nc1NC1CCCC1)N(C)C(=O)/C=C/CN(C)C [Compound 10-48],< 10,< 10,< 10,–,–,–
CCCNc1nc(Nc2ccc(C(F)(F)F)cc2)ncc1C#CCCCNC(=O)[C@H](C)N(C)C(=O)/C=C/CN(C)C [Compound 12-5],< 10,10 to 100,10 to 100,–,–,–
CN(C)C/C=C/C(=O)N(C)CC(=O)NCCCC#Cc1cnc(Nc2ccc(F)nc2)nc1NCC(F)(F)F [Compound 10-36],< 10,< 10,< 10,–,–,–
CCCNc1nc(NCCc2ccncc2)ncc1C(=O)Nc1cccc(NC(=O)C(C)(C)NC(=O)/C=C/CN(C)C)c1 [Compound 2-11],< 10,10 to 100,10 to 100,–,–,–
CCCNc1nc(Nc2ccc3nnccc3c2)ncc1C(=O)NCCCNC(=O)[C@H](C)N(C)C(=O)/C=C/CN(C)C [Compound 6-10B],< 10,< 10,< 10,–,–,–
CCCNc1nc(Nc2ccc3occc3c2)ncc1C#CCCCNC(=O)[C@H](C)N(C)C(=O)/C=C/CN(C)C [Compound 21-34],–,–,–,< 10,< 10,< 10

Structure (SMILES),"IC50 [1, 2] [nM]",IC50 (MV4-11 cells; [3]) [nM],IC50 (Molm-13 cells; [4]) [nM],IC50 ([1]; FLT3 (WT)) [nM],"IC50 (MV4-11 cells; MV4-11, MV4-11 cell) [nM]","IC50 (Molm-13 cells; MOLM-13, MOLM13 cell) [nM]"
C[C@@H](C(=O)NCCCC#Cc1cnc(Nc2ccc(C#N)cc2)nc1N1CCCC(F)(F)C1)N(C)C(=O)/C=C/CN(C)C [Compound 10-44],< 10,< 10,< 10,–,–,–
C[C@@H](C(=O)NCCCC#Cc1cnc(Nc2ccc(C#N)cc2)nc1N1CCC(F)CC1)N(C)C(=O)/C=C/CN(C)C [Compound 10-41],< 10,< 10,< 10,–,–,–
COc1ccc(Nc2nc(Nc3ccc(F)cc3)ncc2C#CCCCNC(=O)CN(C)C(=O)/C=C/CN(C)C)cn1 [Compound 10-20],< 10,< 10,< 10,–,–,–
"C[C@@H](C(=O)NCCCC#Cc1cnc(Nc2ccc(C#N)cc2)nc1-n1cccn1)N(C)C(=O)/C=C/CN(C)C [Compound 20-2, (S,E)-N-(1-((5-(2-((4-cyanophenyl)amino)-4-(1H-pyrazol-1-yl)pyrimidin-5-yl)-4-pentyn-1-yl)amino)-1-oxopropan-2-yl)-4-(dimethylamino)-N-methyl-2-butenamide]",10 to 100,10 to 100,10 to 100,–,–,–
CCCNc1nc(Nc2ccc(-n3ccnn3)cc2)ncc1C#CCCCNC(=O)[C@H](C)N(C)C(=O)/C=C/CN(C)C [Compound 22-17],–,–,–,< 10,< 10,< 10
COCCCNc1nc(Nc2ccc(F)cc2)ncc1C#CCCCNC(=O)[C@H](C)N(C)C(=O)/C=C/CN(C)C [Compound 10-26],< 10,< 10,10 to 100,–,–,–
CCNc1nc(Nc2ccc(C#N)cc2)ncc1C#CCCCNC(=O)[C@H](C)N(C)C(=O)/C=C/CN(C)C [Compound 10-46],< 10,< 10,< 10,–,–,–
COc1ccc(Nc2nc(Nc3ccc(F)cc3)ncc2C#CCCCNC(=O)CN(C)C(=O)/C=C/CN(C)C)cc1 [Compound 10-19],< 10,< 10,< 10,–,–,–
CCCNc1nc(Nc2ccc(F)c(OC)c2)ncc1C#CCCCNC(=O)[C@H](C)N(C)C(=O)/C=C/CN(C)C [Compound 9-29],< 10,< 10,< 10,–,–,–
CCCNc1nc(Nc2ccc(C(N)=O)cc2)ncc1C#CCCCNC1(CNC(=O)/C=C/CN(C)C)CCOCC1 [Compound 8-12],< 10,10 to 100,10 to 100,–,–,–
CCCCN(CC(=O)NCCCC#Cc1cnc(Nc2ccc(C#N)cc2)nc1NCCC)C(=O)/C=C/CN(C)C [Compound 7-70],< 10,< 10,< 10,–,–,–
CCCNc1nc(NCCc2ccncc2)ncc1C(=O)Nc1cccc(NC(=O)CNC(=O)/C=C/CN(C)C)c1 [Compound 2-9],< 10,< 10,< 10,–,–,–
CCCNc1nc(Nc2ccc(F)nc2)ncc1C#C[C@@H]1CCC[C@H](NC(=O)[C@H](C)N(C)C(=O)/C=C/CN(C)C)C1 [Compound 13-5],< 10,< 10,< 10,–,–,–
CCCNc1nc(Nc2cccc(F)c2)ncc1C#CCCCNC(=O)[C@H](CC)N(C)C(=O)/C=C/CN(C)C [Compound 7-17],< 10,< 10,< 10,–,–,–
CCCNc1nc(Nc2ncc(C#N)s2)ncc1C#CCCCNC(=O)[C@H](C)N(C)C(=O)/C=C/CN(C)C [Compound 22-22],–,–,–,< 10,< 10,< 10
C[C@@H](C(=O)NCCCC#Cc1cnc(Nc2ccc(F)nc2)nc1NCC(F)(F)F)N(C)C(=O)/C=C/CN(C)C [Compound 10-33],< 10,< 10,< 10,–,–,–
